# Test results from ChEMBL document CHEMBL1201862, “PubChem BioAssay data set” (2004).
# Calls of active or inactive are those of the source. For most assays here, no stated cut-off is given here; in the data, actives have a measured EC50 and inactives only a lower limit.
# How the values were obtained:
# [1] = Trypanosoma cruzi growth suppression in host cells – NIH3T3 host cells, beta-gal luminescence, confirmation (AID 2044); format: functional, cell-based;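 further: intracellular parasites grown in NIH/3T3 mouse fibroblasts as host cells; luminescent beta-galactosidase reporter signal from transgenic T. cruzi replicating inside host cells; inhibitors lower the luminescence signal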
# [2] = NIH3T3 cell viability loss – ATP luminescence, mouse fibroblasts, counter-screen, dose response (AID 2010); format: functional, cell-based;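 further: cells exposed to compound for about 90 hours before reading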
# [3] = biological target: T1, DNA repair protein RAD52 homolog (Homo sapiens, UniProt P43351); format: functional, biochemical
# T1 sequence (P43351 whole entry): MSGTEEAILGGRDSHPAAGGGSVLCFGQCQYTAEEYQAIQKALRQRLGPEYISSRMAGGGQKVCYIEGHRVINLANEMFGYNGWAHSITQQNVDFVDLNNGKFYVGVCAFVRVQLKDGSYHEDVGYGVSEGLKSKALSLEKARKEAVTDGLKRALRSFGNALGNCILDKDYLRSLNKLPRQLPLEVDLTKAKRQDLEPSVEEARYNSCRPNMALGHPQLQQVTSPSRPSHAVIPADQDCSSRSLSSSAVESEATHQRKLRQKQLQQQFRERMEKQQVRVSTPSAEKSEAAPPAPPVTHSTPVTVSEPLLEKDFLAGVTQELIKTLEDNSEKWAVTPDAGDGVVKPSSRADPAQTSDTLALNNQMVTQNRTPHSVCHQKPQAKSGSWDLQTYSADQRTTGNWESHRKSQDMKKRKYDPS
# cells [4] = experiment: cells
# [5] = biological target: Induced myeloid leukemia cell differentiation protein Mcl-1 (Homo sapiens, UniProt Q07820); format: functional
# Chain of Induced myeloid leukemia cell differentiation protein Mcl-1 (Q07820 whole entry): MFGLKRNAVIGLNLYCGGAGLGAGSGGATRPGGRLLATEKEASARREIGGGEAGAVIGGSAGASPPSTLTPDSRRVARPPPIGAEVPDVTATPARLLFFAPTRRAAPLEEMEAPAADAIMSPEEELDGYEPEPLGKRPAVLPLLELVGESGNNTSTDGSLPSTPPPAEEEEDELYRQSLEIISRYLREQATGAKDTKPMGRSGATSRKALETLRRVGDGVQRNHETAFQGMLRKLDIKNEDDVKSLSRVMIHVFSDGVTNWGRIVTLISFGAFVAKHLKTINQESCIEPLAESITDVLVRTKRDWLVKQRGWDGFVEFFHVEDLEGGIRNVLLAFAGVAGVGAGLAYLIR
# [6] = biological target: Heat shock protein HSP 90-alpha (Homo sapiens, UniProt P07900); format: functional, organism-based
# [7] = biological target: Mitogen-activated protein kinase 10 (Homo sapiens, UniProt P53779); experiment: Dose response biochemical screening assay for inhibitors of c-Jun N-Terminal Kinase 3 (JNK3). [Related pubchem assays: 746 ]
# Chain of Mitogen-activated protein kinase 10 (P53779 whole entry): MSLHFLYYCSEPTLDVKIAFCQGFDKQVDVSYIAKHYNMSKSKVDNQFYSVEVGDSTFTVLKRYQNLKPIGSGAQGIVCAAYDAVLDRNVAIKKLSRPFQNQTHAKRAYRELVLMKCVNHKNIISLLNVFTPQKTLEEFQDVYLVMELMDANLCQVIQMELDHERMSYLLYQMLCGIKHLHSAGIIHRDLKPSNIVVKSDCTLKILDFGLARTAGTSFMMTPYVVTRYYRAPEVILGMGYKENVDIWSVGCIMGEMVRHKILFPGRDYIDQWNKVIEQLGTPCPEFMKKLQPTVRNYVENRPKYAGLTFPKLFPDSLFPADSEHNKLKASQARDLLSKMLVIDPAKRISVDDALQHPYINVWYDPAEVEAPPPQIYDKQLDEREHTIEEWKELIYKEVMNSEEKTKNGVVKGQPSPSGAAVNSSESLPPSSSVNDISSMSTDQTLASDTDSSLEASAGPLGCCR
# [8] = biological target: T2, Tyrosine-protein phosphatase non-receptor type 7 (Homo sapiens, UniProt P35236); experiment: HePTP tyrosine phosphatase activity blockers – biochemical, absorbance, leukemia target, primary screen (AID 521); format: functional
# T2 sequence (P35236 whole entry): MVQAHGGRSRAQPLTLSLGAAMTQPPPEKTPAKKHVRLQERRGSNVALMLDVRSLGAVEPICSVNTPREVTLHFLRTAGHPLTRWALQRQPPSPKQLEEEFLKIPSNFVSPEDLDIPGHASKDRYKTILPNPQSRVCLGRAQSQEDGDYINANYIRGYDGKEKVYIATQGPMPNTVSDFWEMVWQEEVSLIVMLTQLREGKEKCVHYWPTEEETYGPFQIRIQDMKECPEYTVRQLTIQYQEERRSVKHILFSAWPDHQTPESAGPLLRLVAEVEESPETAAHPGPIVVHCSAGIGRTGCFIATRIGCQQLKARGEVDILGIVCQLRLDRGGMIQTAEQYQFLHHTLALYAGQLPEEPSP
# [9] = biological target: T3, Heat shock factor protein 1 (Mus musculus, UniProt P38532); experiment: enhancement of HSF1-driven luciferase signal – cell-based, NIH3T3, luminescence, dose retest, confirmation (AID 435004); format: functional;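 further: stress induced by proteasome inhibitor MG132 added 30 min after compound; luciferase reporter driven by HSF1 response element in NIH3T3 cells; actives raise luminescence as potentiators of the MG132 stress response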
# T3 sequence (P38532 whole entry): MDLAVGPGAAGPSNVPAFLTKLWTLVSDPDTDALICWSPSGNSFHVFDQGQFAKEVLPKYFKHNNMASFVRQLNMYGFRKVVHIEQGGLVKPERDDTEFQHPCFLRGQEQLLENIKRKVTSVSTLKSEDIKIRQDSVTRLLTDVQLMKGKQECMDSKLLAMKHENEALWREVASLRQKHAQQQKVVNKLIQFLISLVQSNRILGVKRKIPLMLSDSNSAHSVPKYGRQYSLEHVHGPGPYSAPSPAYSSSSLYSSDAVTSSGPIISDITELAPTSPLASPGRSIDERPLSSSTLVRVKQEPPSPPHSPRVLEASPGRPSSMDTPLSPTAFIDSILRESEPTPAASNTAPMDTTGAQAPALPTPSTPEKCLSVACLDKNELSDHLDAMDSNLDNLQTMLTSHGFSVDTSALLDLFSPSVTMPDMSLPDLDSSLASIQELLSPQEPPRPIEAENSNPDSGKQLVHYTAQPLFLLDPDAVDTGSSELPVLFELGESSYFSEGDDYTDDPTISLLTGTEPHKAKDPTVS
# [10] = M. tuberculosis H37Rv growth inhibitors, H37Rv strain (AID 1626); format: functional
# [11] = NIH-3T3 fibroblast cytotoxicity, dose response, cytotoxicity control, cell-based, fluorescence, Alamar Blue, secondary assay (AID 2327); format: functional;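 further: NIH-3T3 mouse fibroblasts cultured with fluconazole at 8 µg/mL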
# [12] = biological target: T4, RNA-binding protein pos-1 (Caenorhabditis elegans, UniProt G5EF15); experiment: disruptors of C. elegans POS-1 RNA interaction – biochemical, fluorescence polarization, dose response (AID 1964);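 further: purified POS-1 fused to maltose binding protein made in E. coli; potency of compounds blocking POS-1 binding to fluorescent RNA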
# T4 sequence (G5EF15 whole entry): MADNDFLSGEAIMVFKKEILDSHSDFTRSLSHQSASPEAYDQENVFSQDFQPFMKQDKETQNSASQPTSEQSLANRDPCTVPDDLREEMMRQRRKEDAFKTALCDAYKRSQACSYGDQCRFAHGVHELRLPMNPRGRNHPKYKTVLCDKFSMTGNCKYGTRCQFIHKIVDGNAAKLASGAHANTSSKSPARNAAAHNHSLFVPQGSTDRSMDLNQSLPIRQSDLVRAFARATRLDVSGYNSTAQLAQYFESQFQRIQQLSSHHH
# [13] = biological target: T5, Zinc finger protein mex-5 (Caenorhabditis elegans, UniProt Q9XUB2); experiment: potency of MEX-5 RNA-binding blockers – biochemical, C. elegans, fluorescence polarization, dose response (AID 1960)
# T5 sequence (Q9XUB2 whole entry): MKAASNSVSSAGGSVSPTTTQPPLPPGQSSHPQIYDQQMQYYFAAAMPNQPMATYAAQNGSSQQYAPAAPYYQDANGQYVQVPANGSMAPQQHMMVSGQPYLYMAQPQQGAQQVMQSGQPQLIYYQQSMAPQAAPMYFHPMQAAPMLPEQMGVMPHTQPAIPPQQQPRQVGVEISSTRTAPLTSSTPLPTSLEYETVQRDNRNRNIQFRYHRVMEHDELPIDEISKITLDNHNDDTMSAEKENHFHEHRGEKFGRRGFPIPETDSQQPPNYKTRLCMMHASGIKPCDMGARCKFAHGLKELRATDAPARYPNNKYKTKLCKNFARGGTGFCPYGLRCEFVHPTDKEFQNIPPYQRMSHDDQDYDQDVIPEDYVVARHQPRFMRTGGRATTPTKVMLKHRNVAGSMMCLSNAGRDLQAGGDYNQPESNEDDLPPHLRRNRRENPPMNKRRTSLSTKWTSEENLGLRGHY
# [14] = fluconazole-exposed Candida albicans growth modulators – fluorescence, retest, confirmation (AID 2467); format: functional, cell-based
# [15] = biological target: T6, Endoribonuclease toxin MazF (Escherichia coli K-12, UniProt P0AE70); experiment: activation of MazEF endoribonuclease cleavage – biochemical, fluorescence, single-stranded RNA substrate, uHTS hits, dose response (AID 588481); format: functional
# T6 sequence (P0AE70 whole entry): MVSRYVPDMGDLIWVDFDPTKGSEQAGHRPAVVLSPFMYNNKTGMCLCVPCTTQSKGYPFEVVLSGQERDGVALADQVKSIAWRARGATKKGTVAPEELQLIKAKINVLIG
# [16] = biological target: T6, Endoribonuclease toxin MazF; experiment: substrate-only fluorescence increase artefacts – biochemical, single-stranded RNase substrate, counter-screen for MazEF activator project, dose response (AID 588502); format: functional
# [17] = biological target: T7, Corticotropin-releasing factor receptor 2/Corticotropin-releasing factor-binding protein (Homo sapiens, UniProt P24387+Q13324); experiment: activators of CRF receptor 2 with binding protein – uHTS hits, confirmation (AID 602473); format: functional; conditions: read-out: EC50_Mean
# T7 sequence (Q13324 whole entry): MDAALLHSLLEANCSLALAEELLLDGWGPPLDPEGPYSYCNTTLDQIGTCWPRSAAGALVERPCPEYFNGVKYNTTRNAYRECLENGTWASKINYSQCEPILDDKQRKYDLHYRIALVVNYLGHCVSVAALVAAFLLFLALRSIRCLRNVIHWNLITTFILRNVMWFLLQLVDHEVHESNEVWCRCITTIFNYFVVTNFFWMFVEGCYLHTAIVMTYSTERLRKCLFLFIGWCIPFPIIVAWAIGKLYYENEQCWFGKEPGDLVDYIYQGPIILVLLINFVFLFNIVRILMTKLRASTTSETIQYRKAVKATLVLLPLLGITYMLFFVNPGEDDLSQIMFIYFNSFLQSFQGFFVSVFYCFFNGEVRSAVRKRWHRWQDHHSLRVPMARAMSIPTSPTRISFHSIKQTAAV
# T7 sequence (P24387 whole entry): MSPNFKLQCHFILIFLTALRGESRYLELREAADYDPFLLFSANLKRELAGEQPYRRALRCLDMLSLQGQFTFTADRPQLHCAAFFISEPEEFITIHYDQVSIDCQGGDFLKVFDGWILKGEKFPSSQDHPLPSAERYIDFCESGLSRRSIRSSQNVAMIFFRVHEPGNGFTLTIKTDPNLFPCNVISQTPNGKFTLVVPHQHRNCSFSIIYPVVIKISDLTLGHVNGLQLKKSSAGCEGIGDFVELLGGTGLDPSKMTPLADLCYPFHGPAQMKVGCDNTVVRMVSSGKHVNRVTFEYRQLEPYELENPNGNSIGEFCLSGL
# [18] = viability loss in THP-1 monocytes – THP-1 cells, cytotoxicity control for Vif-APOBEC3G degradation inhibitor project, dose response (AID 1117359); format: functional; conditions: THP-1
# [19] = viability inhibitors of stage V gametocytes – luminescence, dose response (AID 1117278); format: functional, cell-based;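 further: gametocytes exposed to compound for 24 hours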
# [20] = viability loss in human Jurkat cells – cell-based, luminescence, cytotoxicity control for P. falciparum gametocyte viability project, dose response (AID 1117277); format: functional;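 further: potency reflects loss of cellular ATP meaning fewer viable cells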
# [21] = biological target: Luciferin 4-monooxygenase (Photinus pyralis, UniProt P08659); experiment: Counter Screen for Luciferase-based Assay Positives. [Related pubchem assays: 620, 618, 411 ]
# Chain of Luciferin 4-monooxygenase (P08659 whole entry): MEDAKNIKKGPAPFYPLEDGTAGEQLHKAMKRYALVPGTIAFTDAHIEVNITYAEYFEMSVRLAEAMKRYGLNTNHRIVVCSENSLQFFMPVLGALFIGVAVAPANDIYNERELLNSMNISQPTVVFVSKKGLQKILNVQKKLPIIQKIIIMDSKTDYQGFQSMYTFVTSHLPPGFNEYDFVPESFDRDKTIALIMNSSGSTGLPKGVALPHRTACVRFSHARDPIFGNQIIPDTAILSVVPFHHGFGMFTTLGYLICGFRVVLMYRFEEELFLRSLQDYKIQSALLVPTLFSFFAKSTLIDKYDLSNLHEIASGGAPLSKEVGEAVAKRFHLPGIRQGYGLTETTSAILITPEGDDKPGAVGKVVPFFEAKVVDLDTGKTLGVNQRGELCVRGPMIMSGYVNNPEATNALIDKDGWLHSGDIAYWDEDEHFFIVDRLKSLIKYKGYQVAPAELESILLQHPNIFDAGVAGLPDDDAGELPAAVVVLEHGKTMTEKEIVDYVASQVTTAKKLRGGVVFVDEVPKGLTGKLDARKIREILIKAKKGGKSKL
# HT-1080 = experiment: HT1080 cell viability loss – fluorescence readout (AID 620); format: functional, cell-based; conditions: Homo sapiens
# [22] = luciferase reporter signal suppression in cells – H4 neuroglioma cells, luminescence, dose response (AID 1990); format: functional, cell-based
# [23] = luciferase reporter signal reduction – luminescence, H4-C neuroglioblastoma cells, dose response (AID 2458); format: functional, cell-based;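 further: H4 neuroglioblastoma cells stably carrying a luciferase reporter gene fusion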
# BJ [24] = experiment: BJ-TERT fibroblast viability loss – cell-based, RAS-independent, luminescence, dose response (AID 1933); format: functional; conditions: Homo sapiens
# cells [25] = format: functional, cell-based
# [26] = alpha-synuclein stem-loop luciferase translation blockers – H4 neuroglioma cells, luminescence, confirmation (AID 1988); format: functional, cell-based
# BJ [27] = experiment: cells; format: functional, cell-based; conditions: Homo sapiens
# BJ [28] = experiment: BJ-TERT-LT-ST fibroblast viability loss – cell-based, RAS-independent, luminescence, dose response (AID 1935); format: functional; conditions: Homo sapiens;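 further: BJ fibroblasts immortalized with TERT plus LT and ST oncogenes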
# [29] = DRD fibroblast viability loss – cell-based, non-viral oncogenic, luminescence, dose response (AID 1934); format: functional; conditions: Homo sapiens
# [30] = alpha-synuclein stem-loop translation blockers – luminescence, H4 neuroglioblastoma cells, dose confirmation, confirmation (AID 2454); format: functional, cell-based;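 further: H4 neuroglioblastoma cells carrying an alpha-synuclein 5'UTR luciferase reporter; potency for inhibition of the luciferase signal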
# [31] = HEK-293T cell viability reduction – luminescence, B-cell screen hits, cytotoxicity control for BCR NF-kB inhibitor project, dose response (AID 489021); format: functional, cell-based;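 further: HEK-293T cells carrying an NF-kB luciferase reporter; cells exposed to compound for about 14 hours before viability readout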
compound,measurement,setting,value
Cc1ccc2nc(N(CCCN(C)C)C(=O)CN3C(=O)c4ccccc4C3=O)sc2c1,EC50,[1],< 0.1 µM (active)
same,EC50,[2],> 60 µM (not active)
same,AC50,[3],21.7 µM (active)
same,EC50,cells [4],0.055 µM (active)
Cc1c(Cc2ccccc2)c(NCCN(C)C)n2c(nc3ccccc32)c1C#N,EC50,[1],< 0.1 µM (active)
same,EC50,[2],34.1 µM (active)
same,IC50,[5],3.29 µM (active)
same,AC50,[6],2.37 µM (active)
same,EC50,cells [4],0.015 µM (active)
CCOC(=O)c1c(-c2ccc(OC)cc2)n[nH]c1N,IC50,[7],63.1 µM (not active)
O=C(NCc1cccc(F)c1)c1noc2c1CCCC2,IC50,[8],> 100 µM (not active)
same,EC50,[9],> 260 µM (inactive)
CN1C(=O)C(=CNc2ccc3c(c2)CCC3)C(=O)N(C)C1=O,IC50,[10],> 100 µM (active)
CCN(CC)c1ccc(/N=C/c2ccc(N(CC)CC)cc2O)cc1,EC50,[11],147 µM (inconclusive)
same,EC50,[12],> 300 µM (not active)
same,EC50,[13],> 300 µM (not active)
same,EC50,[14],> 38 µM (not active)
same,EC50,[1],3.25 µM (active)
same,EC50,[2],> 60 µM (not active)
same,EC50,[15],> 99 µM (inactive)
same,EC50,[16],> 99 µM (inactive)
same,EC50,[17],4.26 µM (active)
same,CC50,[18],> 40 µM (active)
CC1(C)CC(=O)C(/C=N/c2ccc3c(c2)OCO3)=C(O)C1,IC50,[10],> 100 µM (active)
CCCc1ccc(OCCNC(=O)CC)cc1,IC50,[19],> 109 µM (inactive)
same,IC50,[20],> 83.4 µM (inactive)
CC1CCc2nc(NC(=O)C3CCCO3)sc2C1 (centres undefined),EC50,[21],< 0.2 µM (active)
same,EC50,HT-1080,> 50 µM (not active)
N#Cc1sc2nc3c(c(-c4ccco4)c2c1N)CCCC3,IC50,[7],68.6 µM (not active)
CCCCOC(=O)c1ccc(NC(=O)C(=O)NCc2ccccn2)cc1,IC50,[10],> 100 µM (active)
CNC(=O)C1=NCCCc2cc(OC)c(OC)cc21,IC50,[8],> 100 µM (not active)
CCOC(=O)Cc1ccc(NC(=O)c2ccc(C(C)(C)C)cc2)cc1,EC50,[22],< 0.1 µM (active)
same,EC50,[23],0.266 µM (active)
same,EC50,BJ [24],60.1 µM (active)
same,EC50,cells [25],0.508 µM (active)
same,EC50,[26],< 0.1 µM (active)
same,EC50,BJ [27],> 150 µM (not active)
same,EC50,BJ [28],> 150 µM (inconclusive)
same,EC50,[29],49.5 µM (active)
same,EC50,[30],0.483 µM (active)
same,IC50,[31],42.8 µM (inactive)
Cc1ccc(-c2csc(N=C(N)N)n2)c(C)c1,EC50,[1],< 0.1 µM (active)
same,EC50,[2],> 60 µM (not active)
same,EC50,cells [4],0.167 µM (active)
CC(=O)NC1C(=O)N=C(SCc2ccccc2)NC1=O (centres undefined),IC50,[19],> 109 µM (inactive)
same,IC50,[20],> 83.3 µM (inactive)
N#Cc1c(N)nc2c(c1-c1ccncc1)CCCCC2,IC50,[19],> 109 µM (inactive)
same,IC50,[20],> 83.4 µM (inactive)
COc1ccccc1CNC(=O)Nc1cccs1,IC50,[8],> 100 µM (not active)
